Laboratory results as given in patent publication US20100316655A1, “COMPOUNDS WITH MDR1-INVERSE ACTIVITY” (priority 2008, published 2010).

Key:
[1] = system: KB-3-1 adenocarcinoma cells; assay: MTT cytotoxicity assay, parental P-gp-negative KB-3-1 cells; type: cell-based, human
Description: (§1) Exemplary compounds were also tested against the KB-V1 adenocarcinoma cell line that expresses high levels of P-gp (the protein product of MDR1). […] MDR1 selectivity is determined by the ratio of IC50 against KB-3-1 cells divided by its IC50 against KB-V1 cells.
(§2) This example describes evaluation of compounds using the MTT cytotoxicity assay. Cell survival was measured by the MTT (3-(4,5-dimethylthiazol-2-yl)-2,5-diphenyltetrazolium bromide) assay as previously described by Ludwig, J. A. et al. Selective toxicity of NSC73306 in MDR1-positive cells as a new strategy to circumvent multidrug resistance in cancer. […] Briefly, cells were seeded in […] of growth medium at a density of 5000 cells/well in 96-well plates and allowed to establish for 24 hours, at which time serially diluted drugs were added in an additional […] growth medium. Cells were then incubated for 72 hours at 37° C. in humidified 5% CO2, at which time the growth media was drawn, and replaced with MTT in IMDM growth media and incubated for 4 hours. The MTT solution was then drawn from the wells, and […] acidified ethanol solution was added to each well and after 15 minutes absorption at 560 nm was measured.

[2] = system: KB-V1 adenocarcinoma cell line; assay: MTT cytotoxicity assay, P-gp (MDR1) expressing KB-V1 cells; MDR1 selectivity vs KB-3-1; type: cell-based, human; conditions: for IC50: MTT, 72 hours; for MDR1 selectivity / MDR1 select.: ratio of IC50 against KB-3-1 divided by IC50 against KB-V1; for MDR1 selectivity: >1 = MDR1-inverse activity; for MDR1-inverse selectivity (in words): Example 3, Table 1, KB-V1 vs KB-3-1
Description: as §1, §2

[3] = Homo sapiens, Table 1, 72 hours, KB-3-1 (P-gp-negative)
[4] = Homo sapiens, Table 1, KB-V1 (high P-gp)
[5] = Table 2, 72 hours, unit inferred

| SMILES | IC50 [1, 3] [µM] | IC50 [2, 4] [µM] | MDR1-inverse selectivity (in words) [2] | further results |
| --- | --- | --- | --- | --- |
| O=C1Nc2ccccc2C1=O | > 50 | > 50 |  |  |
| NC(=S)N/N=C/c1ncccc1N | 1.4 ± 2.5 | 5.9 ± 2.6 |  | MDR1 selectivity ([2]; Table 1): 0.2 |
| Cc1cnc(/C=N/NC(N)=S)c2cccc(N)c12 | 1.9 ± 0.8 | 2.1 ± 0.3 |  | MDR1 selectivity ([2]; Table 1): 0.9 |
| CC(=O)Nc1ccc(/C=N/NC(N)=S)cc1 | > 50 | > 50 |  |  |
| COc1ccc(NC(=S)NN=C2Cc3ccccc3C2)cc1 | > 50 | > 50 |  |  |
| COc1ccc(NC(=S)N/N=C2\CCc3ccccc32)cc1 | > 50 | > 50 |  |  |
| NC(=S)N/N=C1\C(=O)Nc2ccccc21 | > 50 | > 50 |  |  |
| NC(=O)N/N=C1\C(=O)Nc2ccccc21 | > 50 | > 50 |  |  |
| COc1ccc(NC(=S)NN)cc1 | > 50 | > 50 |  |  |
| COc1ccc(NC(=S)N/N=C2\C(=O)Nc3ccc(S(=O)(=O)O)cc32)cc1 | > 50 | > 50 |  |  |
| COc1ccc(NC(=S)N/N=C2\C(=O)Nc3c2ccc2ccccc32)cc1 | 4.4 ± 3.6 | 30.3 ± 5.9 |  | MDR1 selectivity ([2]; Table 1): 0.1 |
| COc1ccc(NC(=O)N/N=C2\C(=O)Nc3ccccc32)cc1 | 27.7 ± 3.3 | > 50 |  |  |
| COc1ccc(NC(=S)N/N=C/c2ccc(NC(C)=O)cc2)cc1 | > 50 | > 50 |  |  |
| COc1ccc(NC(=S)N/N=C2\C(=O)Nc3ccc(F)cc32)cc1 [Compound 7, 1-(5′-Fluoroisatin)-4-(4′-methoxyphenyl)-3-thiosemicarbazone] |  |  | MDR1-inverse selectivity |  |
| COc1ccc(NC(=S)N/N=C2\C(=O)N(C)c3ccccc32)cc1 [Compound 8, 1-(N-methylisatin)-4-(4′-methoxyphenyl)-3-thiosemicarbazone] |  |  | MDR1-inverse selectivity |  |
| COc1ccc(NC(=S)N/N=C/c2ccccn2)cc1 [Compound 10, 1-(2′-Pyridinecarboxaldehyde)-4-(4′-methoxyphenyl)-3-thiosemicarbazone] |  |  | MDR1-inverse selectivity |  |
| COc1ccc(NC(=S)N/N=C2\C(=O)Nc3ccc([N+](=O)[O-])cc32)cc1 [Compound 12, 1-(5′-Nitroisatin)-4-(4′-methoxyphenyl)-3-thiosemicarbazone] |  |  | MDR1-inverse selectivity |  |
| C=CCNC(=S)N/N=C1\C(=O)Nc2ccccc21 [Compound 13, 1-Isatin-4-allyl-3-thiosemicarbazone] |  |  | MDR1-inverse selectivity |  |
| CNC(=S)NN=C1C(=O)Nc2ccccc21 [Compound M1, 1-Isatin-4-methyl-3-thiosemicarbazone] |  |  |  | IC50 [1, 5]: 35.3 µM; IC50 ([2]; Table 2, unit inferred): 19.4 µM; MDR1 select. ([2]; Table 2): 1.82 |
| O=C1Nc2ccccc2C1=NNC(=S)NC1CCCCC1 [Compound M2, 1-Isatin 4-cyclohexyl-3-thiosemicarbazone] |  |  |  | IC50 [1, 5]: 9.14 µM; IC50 ([2]; Table 2, unit inferred): 4.38 µM; MDR1 select. ([2]; Table 2): 2.09 |
| CN(C)c1ccc(NC(=S)NN=C2C(=O)Nc3ccccc32)cc1 [Compound M3, 1-Isatin-4-(4′-(dimethylamino)phenyl)-3-thiosemicarbazone] |  |  |  | IC50 [1, 5]: 6.95 µM; IC50 ([2]; Table 2, unit inferred): 2.23 µM; MDR1 select. ([2]; Table 2): 2.99 |
| O=C1Nc2ccccc2C1=NNC(=S)Nc1ccc(O)cc1 [Compound M4, 1-Isatin-(4′-hydroxyphenyl)-3-thiosemicarbazone] |  |  |  | IC50 [1, 5]: 35.8 µM; IC50 ([2]; Table 2, unit inferred): 21.6 µM; MDR1 select. ([2]; Table 2): 1.66 |
| O=C1Nc2ccc([N+](=O)[O-])cc2C1=NNC(=S)Nc1ccccc1 [NSC716766, 1-(5′-Nitroisatin)-4-phenyl-3-thiosemicarbazone] |  |  | MDR1-inverse selectivity |  |
| O=C1Nc2ccc(Br)cc2/C1=N/NC(=S)Nc1ccc(F)cc1 [NSC716771, 1-(5′-Bromoisatin)-4-(4′-fluorophenyl)-3-thiosemicarbazone] |  |  | MDR1-inverse selectivity |  |
| O=C1Nc2ccc(Br)cc2/C1=N/NC(=S)Nc1ccc([N+](=O)[O-])cc1 [NSC716772, 1-(5′-Bromoisatin)-4-(4′-nitrophenyl)-3-thiosemicarbazone] |  |  | MDR1-inverse selectivity |  |
